What was measured:
[1] = tested on: Corynebacterium glutamicum ATCC 13032; assay: MIC assay, antibiotic susceptible reference strain; format: cell-based; settings: Corynebacterium glutamicum, ATCC13032, read-out: Antimicrobial activity (MIC) C. g
Experimental: (§1) Working solutions of the test derivatives were prepared with up to 100% DMSO and stored at −20° C. If necessary, the solutions were heated to 40-80° C. before testing to facilitate complete dissolution. Double-distilled water was used in all dilutions prepared. […] A microdilution susceptibility test was used for MIC determination according to Clinical and Laboratory Standards Institute, “Methods for Dilution Antimicrobial Sisceptibility Tests for Bacteria That Graw Aerobically”, Approved Standard M07-A9, edition 2012, with modifications as described by Igumnova et al (Bioorg Med Chem, 2016, 24 (22), 5884-5894).
(§2) Briefly, the bacterial inoculum was adjusted to approximately 2.5-3×10^4 cells/mL in Mueller-Hinton broth (MHB, Difco Laboratories, USA), and incubated in a ratio of 1:1 with test derivatives in polystyrene 96-well flat-bottom microplates (NUNC, Roskilde, Denmark). Positive growth control (without test derivatives) and negative control (without bacteria) were included. The reference antibiotic was oxytetracycline hydrochloride (Sigma Aldrich, Saint Louis, Mo., USA). The microplates were incubated in an EnVision microplate reader (Perkin-Elmer, Turku, Finland) placed in an incubator set to 35° C. for 48 h. The MIC value was defined as the lowest concentration of derivative resulting in no bacterial growth as determined by OD600 measurement. All derivatives were tested in three parallels.

[2] = tested on: Escherichia coli ATCC 25922; assay: MIC assay, antibiotic susceptible reference strain; format: cell-based; settings: Escherichia coli, ATCC25922, read-out: Antimicrobial activity (MIC) E. c
Experimental: as §1, §2

[3] = tested on: Pseudomonas aeruginosa PA01, DSM 19880 (ATCC 15692); assay: MIC assay, antibiotic susceptible reference strain; format: cell-based; settings: Pseudomonas aeruginosa, read-out: Antimicrobial activity (MIC) P. a
Experimental: as §1, §2

[4] = tested on: Staphylococcus aureus ATCC 9144; assay: MIC assay, antibiotic susceptible reference strain; format: cell-based; settings: Staphylococcus aureus, ATCC9144, read-out: Antimicrobial activity (MIC) S. a
Experimental: as §1, §2

S. aureus IHT 99040 = assay: MIC, multi-resistant clinical isolate; format: cell-based, Staphylococcus aureus
Experimental: as §1, §2
(§3) The MIC was determined as explained above with some exceptions; working solutions of test derivatives were prepared from concentrated DMSO stocks stored at room temperature, the density of the bacterial inoculum was increased 40× to 1-1.2×10^6 cells/mL, enterococci were incubated in Brain Heart Infusion broth (BHIB, Difco Laboratories, USA), the microplates were incubated for 24 h, and the derivatives were tested in four parallels.

S. aureus N315 = assay: MIC, multi-resistant clinical isolate; format: cell-based, Staphylococcus aureus
Experimental: as §1, §2, §3

S. aureus NCTC 10442 = assay: MIC, multi-resistant clinical isolate; format: cell-based, Staphylococcus aureus
Experimental: as §1, §2, §3

S. aureus strain 85/2082 = assay: MIC, multi-resistant clinical isolate; format: cell-based, Staphylococcus aureus
Experimental: as §1, §2, §3

S. aureus strain WIS = assay: MIC, multi-resistant clinical isolate; format: cell-based, Staphylococcus aureus
Experimental: as §1, §2, §3

E. faecium 50673722 = assay: MIC, multi-resistant clinical isolate; format: cell-based, Enterococcus faecium
Experimental: as §1, §2, §3

E. faecium 50758899 = assay: MIC, multi-resistant clinical isolate; format: cell-based, Enterococcus faecium
Experimental: as §1, §2, §3

E. faecium 50901530 = assay: MIC, multi-resistant clinical isolate; format: cell-based, Enterococcus faecium
Experimental: as §1, §2, §3

E. faecium K36-18 = assay: MIC, multi-resistant clinical isolate; format: cell-based, Enterococcus faecium
Experimental: as §1, §2, §3

E. faecium TUH50-22 = assay: MIC, multi-resistant clinical isolate; format: cell-based, Enterococcus faecium
Experimental: as §1, §2, §3

E. coli 50579417 = assay: MIC, multi-resistant clinical isolate; format: cell-based, Escherichia coli
Experimental: as §1, §2, §3

E. coli 50639799 = assay: MIC, multi-resistant clinical isolate; format: cell-based, Escherichia coli
Experimental: as §1, §2, §3

E. coli 50676002 = assay: MIC, multi-resistant clinical isolate; format: cell-based, Escherichia coli
Experimental: as §1, §2, §3

E. coli 50739822 = assay: MIC, multi-resistant clinical isolate; format: cell-based, Escherichia coli
Experimental: as §1, §2, §3

E. coli 50857972 = assay: MIC, multi-resistant clinical isolate; format: cell-based, Escherichia coli
Experimental: as §1, §2, §3

P. aeruginosa 50692520 = assay: MIC, multi-resistant clinical isolate; format: cell-based, Pseudomonas aeruginosa
Experimental: as §1, §2, §3

P. aeruginosa K34-73 = assay: MIC, multi-resistant clinical isolate; format: cell-based, Pseudomonas aeruginosa
Experimental: as §1, §2, §3

P. aeruginosa K44-24 = assay: MIC, multi-resistant clinical isolate; format: cell-based, Pseudomonas aeruginosa; settings: Pseudomonas aeruginosa, K4424, read-out: Antimicrobial activity (MIC)
Experimental: as §1, §2, §3

S. epidermidis = assay: Anti-biofilm activity (inhibition of biofilm formation); format: cell-based; settings: Staphylococcus epidermidis, read-out: Anti-biofilm IC50
[5] = tested on: panel of 30 multi-resistant clinical isolates of Gram-positive and Gram-negative bacteria; assay: MIC screening, ranges over the panel of clinical isolates; format: cell-based; settings: Enterococcus faecium, read-out: MIC values against the Gram-positive isolates of S. aurues and E. faecium
Experimental: as §1, §2, §3

[6] = Enterococcus faecium, read-out: Antimicrobial activity (MIC)
[7] = Escherichia coli, read-out: Antimicrobial activity (MIC)

NCCCCN1C(=O)N(CCCCN)C(=O)C(Cc2ccc3ccccc3c2)(Cc2ccc3ccccc3c2)C1=O [7(iv), 1,3-bis(4-aminobutyl)-5,5-bis(naphtalen-2-yl-methyl)-pyrimidin-2,4,6(1H,3H,5H)-trione]
16 µg/mL: MIC [2] | MIC [3] | MIC (E. faecium 50673722; [6]) | MIC (E. faecium 50758899; [6]) | MIC (E. faecium K36-18; Enterococcus faecium, K3618, read-out: Antimicrobial activity (MIC)) | MIC (E. coli 50579417; [7]) | MIC (E. coli 50639799; [7]) | MIC (E. coli 50676002; Escherichia coli, 50676002, read-out: Antimicrobial activity (MIC)) | MIC (E. coli 50739822; [7]) | MIC (E. coli 50857972; [7])
(15): selectivity index (EC50/MIC) (E. faecium 50673722; RBC EC50 / MIC) | selectivity index (EC50/MIC) (E. faecium 50758899; RBC EC50 / MIC) | selectivity index (EC50/MIC) (E. faecium K36-18; RBC EC50 / MIC, E. faecium K36-18) | selectivity index (EC50/MIC) (E. coli 50579417; RBC EC50 / MIC) | selectivity index (EC50/MIC) (E. coli 50639799; RBC EC50 / MIC) | selectivity index (EC50/MIC) (E. coli 50676002; RBC EC50 / MIC, E. coli 50676002) | selectivity index (EC50/MIC) (E. coli 50739822; RBC EC50 / MIC) | selectivity index (EC50/MIC) (E. coli 50857972; RBC EC50 / MIC)
(8): selectivity index (EC50/MIC) (P. aeruginosa 50692520; RBC EC50 / MIC) | selectivity index (EC50/MIC) (P. aeruginosa K34-73; RBC EC50 / MIC, P. aeruginosa K34-73)
32 µg/mL: MIC (P. aeruginosa 50692520; Pseudomonas aeruginosa, read-out: Antimicrobial activity (MIC)) | MIC (P. aeruginosa K34-73; Pseudomonas aeruginosa, K3473, read-out: Antimicrobial activity (MIC))
1 µg/mL: MIC [1]
(30): selectivity index (EC50/MIC) (S. aureus IHT 99040; RBC EC50 / MIC) | selectivity index (EC50/MIC) (S. aureus N315; RBC EC50 / MIC, S. aureus N315) | selectivity index (EC50/MIC) (S. aureus NCTC 10442; RBC EC50 / MIC, S. aureus NCTC 10442) | selectivity index (EC50/MIC) (S. aureus strain 85/2082; RBC EC50 / MIC, S. aureus strain 85/2082) | selectivity index (EC50/MIC) (S. aureus strain WIS; RBC EC50 / MIC, S. aureus strain WIS) | selectivity index (EC50/MIC) (E. faecium 50901530; RBC EC50 / MIC) | selectivity index (EC50/MIC) (E. faecium TUH50-22; RBC EC50 / MIC)
8 µg/mL: MIC [4] | MIC (S. aureus IHT 99040; Staphylococcus aureus, IHT99040, read-out: Antimicrobial activity (MIC)) | MIC (S. aureus N315; Staphylococcus aureus, N315, read-out: Antimicrobial activity (MIC)) | MIC (S. aureus NCTC 10442; Staphylococcus aureus, NCTC10442, read-out: Antimicrobial activity (MIC)) | MIC (S. aureus strain 85/2082; Staphylococcus aureus, 85/2082, read-out: Antimicrobial activity (MIC)) | MIC (S. aureus strain WIS; Staphylococcus aureus, read-out: Antimicrobial activity (MIC)) | MIC (E. faecium 50901530; [6]) | MIC (E. faecium TUH50-22; Enterococcus faecium, TUH5022, read-out: Antimicrobial activity (MIC))
4 to 16 µg/mL: MIC [5]
> 32 µg/mL: MIC (P. aeruginosa K44-24)
4 µg/mL: IC50 (S. epidermidis)
